Entries after “also recorded” stand apart in the source; their conditions may differ.
Key:
[1] = Phase 2 study in solid tumors, twice-weekly infusion (safety, PK, response); type: in vivo, human; details: human, plasma, intravenous; patients, 1 hr infusion; read-out: Mean terminal half-life
Description: (§1) Patients with solid tumors who had exhausted standard treatment options received ganetespib as a 1 hr infusion twice-weekly for 3 weeks (weeks) of a 28 day cycle until disease progression. Serial PK and pharmacodynamic samples were obtained during cycle 1. Safety assessments included frequency and grade of adverse events (AEs), laboratory parameters and ECG changes.

solid tumors [2] = test: as above; type: in vivo, human
Description: as §1

GT3TKB = test: 72 hr viability by Syto60, gastric cell line; type: cell-based; details: Syto60 (lower), read-out: ganetespib IC50
advanced NSCLC = test: Phase 2 clinical trial in NSCLC by KRAS, EGFR and ALK mutation status; type: in vivo, human
Description: Patients with advanced NSCLC who failed prior treatments received 200 mg/m^2 of ganetespib as a 1-hr infusion once weekly for 3 of a 4-wk cycle in a Simon two-stage study design assessing primary endpoint of PFS rate at 16 wks. Initial cohorts were defined by mutation status: A) EGFR mutation, KRAS wild-type B) EGFR wild-type, KRAS mutation C) EGFR wild-type, KRAS wild-type (WT). If ≧2/14 patients in A, B or C were progression-free at 16 weeks, enrollment increased to 23 patients for that cohort. Tumor response was assessed every 8 weeks. Cohort D was added to include 35 additional EGFR wild-type and KRAS wild-type patients with adenocarcinoma histology. FISH analysis for ALK translocation, was performed for Cohorts C and D.

solid tumors [3] = test: Phase 1 trial of ganetespib in combination with docetaxel in solid tumors; type: in vivo, human
Description: A trial to evaluate three dose-level combinations of docetaxel and ganetespib, administered on a three-week cycle, with the primary objective of determining an optimal dose for future clinical trials was performed. Docetaxel was administered as a one hour IV infusion on day 1 and ganetespib was administered as a one hour IV infusion on days 1 and 15. The dose level combinations evaluated were 150 mg/m^2 and 60 mg/m^2; 150 mg/m^2 and 75 mg/m^2; and 200 mg/m^2 and 75 mg/m^2 for ganetespib and docetaxel respectively. The standard of care dose level for docetaxel was 75 mg/m^2. A total of 19 patients received at least one dose of study treatment at the cut-off time. The median number of cycles of treatment was 4, with a range of 1 to 11 cycles of treatment. No prophylactic treatment for neutropenia was used. The combination of ganetespib at 150 mg/m^2 and docetaxel at 75 mg/m^2 was selected as the recommended dose.

HGC-27 = test: 72 hr viability by Syto60, gastric cell line; type: cell-based; details: Homo sapiens, Syto60 (lower), read-out: ganetespib IC50
angiogenesis = test: Egg CAM and matrigel plug angiogenesis assays; set-up: species or system chicken; details: all three models
Description: The conditioned medium was collected from control and treated cells. 100 μl of conditioned medium, either control or treated, was injected into fertilized chicken eggs. Eggs were incubated at 37° C. for 15 days, then dissected and the membrane was photographed.
It's postulated that functional inhibition of Hsp90 by ganetespib can inhibit angiogenesis and growth in vitro and in vivo models of pancreatic cancer. PANC-1 and HPAC cell lines were treated with vehicle or G (50 nM) for 24 h and lysates were analyzed by Western blot. Egg CAM and matrigel plug assays were performed to quantify the effects of ganetespib on angiogenesis. Efficacy of ganetespib (100 mg/kg) was assessed in mice bearing HPAC and ASPC-1 xenograft.
Mia-PaCa2, PANC-1 and HPAC cells were treated with Ganetespib (50 nM) or control for 24 hours, the conditioned medium was harvested and 100 μl of conditioned or control medium was injected into fertilized chicken eggs (Avian Vaccine Service center, North Franklin, Conn.). Eggs were incubated at 37° C. for 15 days and dissected. Chorioallantoic membrane was photographed.

[4] = system: KRAS mutant NSCLC cell lines; test: Combinatorial viability analysis in KRAS mutant NSCLC cell lines; type: cell-based
Description: For combinatorial analysis, cells were seeded in 96-well plates at a predetermined, optimum growth density for 24 h prior to the addition of drug or vehicle to the culture medium. Drug combinations were applied at a non-constant ratio over a range of concentrations for 72 or 96 hours. […] Cell viability was assessed by either AlamarBlue® (Invitrogen, Carlsbad, Calif.) or CellTiter-Glo® assays and normalized to vehicle controls. For each combination study, the level of growth inhibition (fraction affected) is plotted relative to vehicle control. Data are presented as one relevant combination point and the corresponding single agent data for each cell line tested.

GCIY = test: 72 hr viability by Syto60, gastric cell line; type: cell-based; details: Homo sapiens, Syto60 (lower), read-out: ganetespib IC50
[5] = system: SUM149 inflammatory breast cancer (IBC) cells; test: 24 hr viability assay, inflammatory breast cancer cells; type: cell-based; details: 24 hr after exposure, FIG. 2
Description: Ganetespib was assayed in inflammatory breast cancer (IBC), a rare but aggressive form of breast cancer distinct from the subtypes presented above.

[6] = Cohort C: EGFR wild-type, KRAS wild-type

Question: Which results are given for `CC(C)c1cc(-c2nnc(O)n2-c2ccc3c(ccn3C)c2)c(O)cc1O` [ganetespib]?
Answer: half-life [1]: 10 to 14 h; NSCLC patients with durable SD, with tumor shrinkage (solid tumors [2]; 6 months of treatment): 2 patients; DLTs (elevated transaminases) (solid tumors [2]; in the 10 and 144 mg/m^2 cohorts): Two; Volume of distribution (solid tumors [2]; patients): greater than total body water; PK linearity (solid tumors [2]; patients, doses from 2-144 mg/m^2): linear PK; Accumulation in plasma (solid tumors [2]; patients, twice-weekly dosing): no accumulation in plasma; Tolerability (solid tumors [2]; twice-weekly administration): absence of severe liver, ocular, cardiac and renal toxicity; also recorded: well-tolerated; Response by RECIST in a patient with metastatic melanoma (solid tumors [2]; twice-weekly dosing): confirmed durable PR; AEs reported in ≧20% of patients (solid tumors [2]; twice-weekly, majority mild to moderate): fatigue, diarrhea, nausea, anemia, abdominal pain, constipation, anorexia, vomiting, and headache; IC50 (GT3TKB): 6 nM; Adverse events reported in ≧20% of patients (advanced NSCLC; 200 mg/m^2 once weekly for 3 of a 4-wk cycle, generally grade 1-2): diarrhea, fatigue, nausea, anorexia, constipation, and dyspnea; Objective response rate (CR+PR) (advanced NSCLC; ALK+ patients, 4/8): 50%; Disease control rate (advanced NSCLC; ALK+ patients, 7/8): 88%; Patients with prolonged stable disease (≧16 weeks) (advanced NSCLC; [6]): seven; Response in cohort C (advanced NSCLC; [6]): durable partial response (PR); ALK+ patients with tumor shrinkage in target lesions (advanced NSCLC; eight ALK+ patients of cohorts C and D (six of eight)): 75%; Tolerability (advanced NSCLC; single agent 200 mg/m^2 once weekly, without severe liver, ocular, cardiovascular or renal toxicity): well-tolerated; Febrile neutropenia (solid tumors [3]; four patients, ganetespib in combination with docetaxel): 22%; Neutropenia (most common adverse event) (solid tumors [3]; ganetespib in combination with docetaxel): 67%; Recommended dose of ganetespib (solid tumors [3]; in combination with docetaxel at 75 mg/m^2): 150 mg/m^2; Serious adverse events (solid tumors [3]; nine patients, ganetespib in combination with docetaxel): 50%; Shrinkage of target tumor lesions (solid tumors [3]; one patient with cancer of the parotid gland, ganetespib with docetaxel): over 50%; Effect of ganetespib on docetaxel pharmacokinetics (solid tumors [3]; patients): no effect; Pharmacokinetics of ganetespib alone versus prior to docetaxel (solid tumors [3]; patients): pharmacokinetic similarity; IC50 (HGC-27): 11 nM; Angiogenesis compared to vehicle (angiogenesis): reduced angiogenesis; Increase in cell death versus monotherapy ([4]; ganetespib combined with alkylating agents): ≤ 61%; Increase in cell death versus monotherapy ([4]; ganetespib combined with anti-mitotics): up to 44%; Increase in cell death versus monotherapy ([4]; ganetespib combined with topoisomerase inhibitors): ≤ 26%; Greater activity than monotherapy ([4]; low dose of ganetespib combined with MEK inhibitors): up to 77%; Greater activity than monotherapy ([4]; low dose of ganetespib combined with PI3K/mTOR inhibitors): ≤ 42%; IC50 (GCIY): 9 nM; Anticancer activity against SUM149 cells [5]: considerable anticancer activity
